One assay deals with Hep-3B cells. The assay is described as follows: Cellular assay: erythropoietin secretion in Hep-3B cells. The class given is cell-based, human. The following applies: Homo sapiens, Hep3B, 100 μM compound, 24 hours, percent of EPO secretion relative to assay control compound 7-[(4-Chloro-phenyl)-(5-methyl-isoxazol-3-ylamino)-methyl]-quinolin-8-ol, read-out: Cellular % EPO Stimulation. The protocol: Hep-3B cells (ATCC, Manassas, Va.) were plated in 96-well plates at 20,000 cells per well in 100 μl of DMEM containing 10% fetal bovine serum, 1% non-essential amino acids, 50 IU/mL of penicillin and 50 μg/mL of streptomycin (all cell culture reagents from Invitrogen, Carlsbad, Calif.). Twenty-four hours after plating, compounds were added and incubated for an additional 24 hours. All compounds were tested under saturating conditions with final compound concentrations at 100 μM. Fifty microliters of the supernatant was then transferred to a human Hypoxia assay kit (Meso-Scale Discovery, Gaithersburg, Md.). Erythropoietin in the supernatant was detected according to the manufacturer's instructions as follows. EPO detection plates were blocked with 3% BSA in PBS overnight and 50 μl of the supernatant was incubated at room temperature in an orbital shaker for 2 h. Twenty-five microliters of 0.5 μg/ml anti-EPO detection antibody was added for 2 hours at room temperature in an orbital shaker. After 3 washes in PBS, 150 μl of 1× read buffer is added and the plate is then read on the MSD SECTOR instrument.

For the next assay, the target named is T1, human PHD2 (PHD2181-417) (Homo sapiens, UniProt Q9GZT9).
T1 construct: Smt (SUMO) tag (cleaved yes); made in house; host or cells: E. coli BL21 (pBAD vector)
The assay is described as follows: PHD enzymatic assay ([14C]-succinic acid production). It counts as biochemical. The following applies: PHD2181-417, HIF-1α peptide 10 μM, average of results; read-out: Enzyme pIC50 (converted). The protocol:
Protein production was achieved by expression in BL21 cells grown in Terrific Broth containing 100 μg/ml ampicillin. Cell cultures were inoculated at 37° C. and grown to an OD600 of 0.8. Cultures were induced with 0.1% arabinose and grown overnight at 20° C. with continuous shaking at 225 rpm. Cells were then harvested by centrifugation and stored at −80° C. Cell pellets were suspended in Buffer A (50 mM Tris-HCl pH 7.2, 100 mM NaCl, 100 mM L-arginine, 1 mM TCEP, 0.05% (w/v) NP-40, 50 mM imidazole) followed by the addition of lysozyme and benzonase. Cells were lysed by sonication and the lysate was cleared by centrifugation (15,000 rpm, 90 min, 4° C.). The protein was purified by nickel affinity chromatography using a HisTrap Crude FF column (GE Healthcare). Samples were eluted in Buffer A with a 50-200 mM imidazole gradient. […] The flow-through was then dialyzed into 50 mM MES pH 6.0, 1 mM TCEP, 5 mM NaCl for ion exchange chromatography on a HiTrap SP Cation Exchange column (GE Healthcare). […] Fractions were pooled for further purification by size exclusion chromatography over a Superdex 75 Size Exclusion Column (GE Healthcare). Final protein was concentrated to 4 mg/ml and dialyzed in 10 mM PIPES pH 7.0, 100 mM NaCl, 0.5 mM TCEP.
(10 μM, California Peptide Research Inc., Napa, Calif.), and [5-^14C]-2-oxoglutaric acid (50 mCi/mmol, Moravek Chemicals, Brea, Calif.) in reaction buffer (40 mM Tris-HCl, pH 7.5, 0.4 mg/ml catalase, 0.5 mM DTT, 1 mM ascorbate) for 10 minutes. The reaction was stopped by addition of 50 μl of 70 mM H3PO4 and 50 μl of 500 mM NaH2PO4, pH3.2. Detection of [^14C]-succinic acid was achieved by separating from [5-^14C]-2-oxoglutaric acid by incubating the reaction mixture with 100 μl of 0.16 M DNP prepared in 30% perchloric acid. Next, 50 μl of unlabeled 20 mM 2-oxoglutaric acid/20 mM succinic acid, serving as carrier for the radioactivity, was added to the mixture, and was allowed to proceed for 30 minutes at room temperature. The reaction was then incubated with 50 μl of 1 M 2-oxoglutaric acid for 30 additional minutes at room temperature to precipitate the excess DNP. The reaction was then centrifuged at 2800×g for 10 minutes at room temperature to separate [^14C]-succinic acid in the supernatant from the precipitated [^14C]-dinitrophenylhydrazone. Fractions of the supernatant (400 μl) were counted using a beta counter (Beckman Coulter, Fullerton, Calif.).

Where a name gives a salt, the structure may show the parent alone.

T1 sequence (Q9GZT9 181-417): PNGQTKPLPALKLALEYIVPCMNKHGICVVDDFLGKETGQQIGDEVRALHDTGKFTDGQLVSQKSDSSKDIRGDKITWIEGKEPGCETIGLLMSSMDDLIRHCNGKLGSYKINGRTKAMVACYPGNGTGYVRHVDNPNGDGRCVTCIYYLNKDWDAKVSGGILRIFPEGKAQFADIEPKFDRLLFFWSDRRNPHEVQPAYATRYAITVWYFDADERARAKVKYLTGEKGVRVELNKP

On to `O=C(O)c1cnn(-c2nc3cc(-c4ccc(Cl)cc4)ccc3c(=O)[nH]2)c1` [Example 187, 1-[7-(4-Chloro-phenyl)-4-oxo-3,4-dihydro-quinazolin-2-yl]-1H-pyrazole-4-carboxylic acid], for which, in the assay on Hep-3B cells, the Emax at 100 µM turned out to be 24%. In addition, the IC50 on human PHD2 (PHD2181-417) was 63.1 nM.
`O=C(O)c1cnn(-c2nc3cc(-c4ccccc4Cl)ccc3c(=O)[nH]2)c1` [Example 185, 1-[7-(2-Chloro-phenyl)-4-oxo-3,4-dihydro-quinazolin-2-yl]-1H-pyrazole-4-carboxylic acid]: the Emax at 100 µM with Hep-3B cells came out at 15%. Moreover, at human PHD2 (PHD2181-417), the IC50 was 100 nM.
For `O=C(O)c1cnn(-c2nc3cc(Cc4ccccc4)ccc3c(=O)[nH]2)c1` [Example 136, 1-(7-Benzyl-4-oxo-3,4-dihydro-quinazolin-2-yl)-1H-pyrazole-4-carboxylic acid], the Emax at 100 µM with Hep-3B cells came out at 23%. Also, the IC50 at human PHD2 (PHD2181-417) is 31.6 nM.
Take `O=C(O)c1cnn(-c2nc3ccc(OC(F)(F)F)cc3c(=O)[nH]2)c1` [Example 15, 1-(4-Oxo-6-trifluoromethoxy-3,4-dihydro-quinazolin-2-yl)-1H-pyrazole-4-carboxylic acid]: the Emax at 100 µM in the assay on Hep-3B cells was 19%. Moreover, on human PHD2 (PHD2181-417), the IC50 is 15.8 nM.
Consider `O=C(O)c1cnn(-c2nc3cc(F)c(F)cc3c(=O)[nH]2)c1` [Example 5, 1-(6,7-Difluoro-4-oxo-3,4-dihydro-quinazolin-2-yl)-1H-pyrazole-4-carboxylic acid, trifluoroacetate salt], for which the Emax at 100 µM in the assay with Hep-3B cells was found to be 21%. In addition, the IC50 at human PHD2 (PHD2181-417) was 20 nM.
Take `O=C(O)c1cnn(-c2nc3ccc(Oc4ccccc4)cc3c(=O)[nH]2)c1` [Example 20, 1-(4-Oxo-6-phenoxy-3,4-dihydro-quinazolin-2-yl)-1H-pyrazole-4-carboxylic acid]: in the assay with Hep-3B cells, the Emax at 100 µM amounted to 104%. Further, at human PHD2 (PHD2181-417), the IC50 was 25.1 nM.
Consider `CC(C)(C)c1cccc2c(=O)[nH]c(-n3cc(C(=O)O)cn3)nc12` [Example 115, 1-(8-tert-Butyl-4-oxo-3,4-dihydro-quinazolin-2-yl)-1H-pyrazole-4-carboxylic acid], for which, in the assay on Hep-3B cells, the Emax at 100 µM amounted to 27%. Also, at human PHD2 (PHD2181-417), the IC50 is 158 nM.
As to `CC(C)(C)c1ccc2c(=O)[nH]c(-n3cc(C(=O)O)cn3)nc2c1` [Example 147, 1-(7-tert-Butyl-4-oxo-3,4-dihydro-quinazolin-2-yl)-1H-pyrazole-4-carboxylic acid], the Emax at 100 µM with Hep-3B cells was 11%. For the same compound, the IC50 on human PHD2 (PHD2181-417) was 398 nM.
For the compound `O=C(O)c1cnn(-c2nc3cc(F)c(Oc4c(Cl)cccc4Cl)cc3c(=O)[nH]2)c1` [Example 50, 1-[6-(2,6-Dichloro-phenoxy)-7-fluoro-4-oxo-3,4-dihydro-quinazolin-2-yl]-1H-pyrazole-4-carboxylic acid], in the assay with Hep-3B cells, the Emax at 100 µM is 67%. Also, the IC50 on human PHD2 (PHD2181-417) is 31.6 nM.
`O=C(O)c1cnn(-c2nc3ccc(N4CCCC4)cc3c(=O)[nH]2)c1` [Example 123, 1-(4-Oxo-6-pyrrolidin-1-yl-3,4-dihydro-quinazolin-2-yl)-1H-pyrazole-4-carboxylic acid]: the Emax at 100 µM in the assay with Hep-3B cells worked out at 17%. Moreover, the IC50 at human PHD2 (PHD2181-417) is 39.8 nM.
Consider `CC(C)c1ccc2c(=O)[nH]c(-n3cc(C(=O)O)cn3)nc2c1` [Example 146, 1-(7-Isopropyl-4-oxo-3,4-dihydro-quinazolin-2-yl)-1H-pyrazole-4-carboxylic acid], for which, in the assay on Hep-3B cells, the Emax at 100 µM was 16%. The IC50 on human PHD2 (PHD2181-417) was 126 nM.
On to `O=C(O)c1cnn(-c2nc3ccc(C(=O)N4CCCC4)cc3c(=O)[nH]2)c1` [Example 162, 1-[4-Oxo-6-(pyrrolidine-1-carbonyl)-3,4-dihydro-quinazolin-2-yl]-1H-pyrazole-4-carboxylic acid], for which, in the assay with Hep-3B cells, the Emax at 100 µM amounted to 15%. The IC50 at human PHD2 (PHD2181-417) is 31.6 nM.
Take `O=C(O)c1cnn(-c2nc3ccc(C4CCCCC4)cc3c(=O)[nH]2)c1` [Example 21, 1-(6-Cyclohexyl-4-oxo-3,4-dihydro-quinazolin-2-yl)-1H-pyrazole-4-carboxylic acid]: in the assay with Hep-3B cells, the Emax at 100 µM worked out at 84%. Moreover, the IC50 at human PHD2 (PHD2181-417) was 25.1 nM.
For `O=C(O)c1cnn(-c2nc3ccc(-c4cccc(-c5ccccc5)c4)cc3c(=O)[nH]2)c1` [Example 70, 1-(6-Biphenyl-3-yl-4-oxo-3,4-dihydro-quinazolin-2-yl)-1H-pyrazole-4-carboxylic acid], in that order: 41% and 31.6 nM.
Consider `CC(=O)Nc1ccc2nc(-n3cc(C(=O)O)cn3)[nH]c(=O)c2c1` [Example 167, 1-(6-Acetylamino-4-oxo-3,4-dihydro-quinazolin-2-yl)-1H-pyrazole-4-carboxylic acid], for which, in the assay with Hep-3B cells, the Emax at 100 µM stood at 26%. Further, on human PHD2 (PHD2181-417), the IC50 was 31.6 nM.
Take `O=C(O)c1cnn(-c2nc3cc(F)c(Br)cc3c(=O)[nH]2)c1` [Example 127, 1-(6-Bromo-7-fluoro-4-oxo-3,4-dihydro-quinazolin-2-yl)-1H-pyrazole-4-carboxylic acid]: the Emax at 100 µM in the assay with Hep-3B cells stood at 9%. The IC50 at human PHD2 (PHD2181-417) was 31.6 nM.
With `O=C(O)c1cnn(-c2nc3cc(Br)ccc3c(=O)[nH]2)c1` [Example 134, 1-(7-Bromo-4-oxo-3,4-dihydro-quinazolin-2-yl)-1H-pyrazole-4-carboxylic acid], the Emax at 100 µM in the assay on Hep-3B cells came to 18%. Moreover, the IC50 on human PHD2 (PHD2181-417) is 50.1 nM.
For `O=C(O)c1cnn(-c2nc3ccc(-c4cccc(Cl)c4)cc3c(=O)[nH]2)c1` [Example 193, 1-[6-(3-Chloro-phenyl)-4-oxo-3,4-dihydro-quinazolin-2-yl]-1H-pyrazole-4-carboxylic acid], in that order: 141% and 31.6 nM.
As to `CSc1ccc2nc(-n3cc(C(=O)O)cn3)[nH]c(=O)c2c1` [Example 155, 1-(6-Methylsulfanyl-4-oxo-3,4-dihydro-quinazolin-2-yl)-1H-pyrazole-4-carboxylic acid], the Emax at 100 µM with Hep-3B cells worked out at 40%. Moreover, at human PHD2 (PHD2181-417), the IC50 is 31.6 nM.
As for `COc1ccc2nc(-n3cc(C(=O)O)cn3)[nH]c(=O)c2c1` [Example 122, 1-(6-Methoxy-4-oxo-3,4-dihydro-quinazolin-2-yl)-1H-pyrazole-4-carboxylic acid], the Emax at 100 µM with Hep-3B cells came to 16%. In addition, the IC50 at human PHD2 (PHD2181-417) is 25.1 nM.
For `Cc1cccc(C)c1Oc1c(F)cc2nc(-n3cc(C(=O)O)cn3)[nH]c(=O)c2c1F` [Example 63, 1-[6-(2,6-Dimethyl-phenoxy)-5,7-difluoro-4-oxo-3,4-dihydro-quinazolin-2-yl]-1H-pyrazole-4-carboxylic acid] the same measures were 14% and 20 nM.
For `O=C(O)c1cnn(-c2nc3cc4c(cc3c(=O)[nH]2)CCC4)c1` [Example 140, 1-(4-Oxo-4,6,7,8-tetrahydro-3H-cyclopenta[g]quinazolin-2-yl)-1H-pyrazole-4-carboxylic acid] the same measures were 62% and 35.5 nM.
`Nc1ccc2nc(-n3cc(C(=O)O)cn3)[nH]c(=O)c2c1` [Example 180, 1-[6-amino-4-oxo-3,4-dihydro-quinazolin-2-yl]-1H-pyrazole-4-carboxylic acid]: the Emax at 100 µM in the assay with Hep-3B cells is 8%. For the same compound, on human PHD2 (PHD2181-417), the IC50 was 63.1 nM.
Consider `O=C(O)c1cnn(-c2nc3ccc(Oc4cc(F)cc(C(F)(F)F)c4)cc3c(=O)[nH]2)c1` [Example 97, 1-[6-(3-fluoro-5-trifluoromethyl-phenoxy)-4-oxo-3,4-dihydro-quinazolin-2-yl]-1H-pyrazole-4-carboxylic acid], for which the Emax at 100 µM in the assay on Hep-3B cells was 37%. The IC50 on human PHD2 (PHD2181-417) was 20 nM.

Source of the values: US8937078B2, “Quinazolinones as prolyl hydroxylase inhibitors” (Janssen Pharmaceutica NV, priority 2009, dated 2015).
